Entries after “also recorded” stand apart in the source; their conditions may differ. Read-outs that look alike come from different tables or passages of the source.
Tests used:
[1] = system: Hedgehog signaling (TM3-Gli-Luc); experiment: TM3-Gli-Luc luciferase reporter assay stimulated with 20 nM SAG; format: cell-based
In short: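 TM3-Gli-Luc cells on 0.1% gelatin in DMEM/F12 with 2.5% FBS, treated 48 h with compound plus 20 nM SAG. Steady-Glo luminescence normalized to CellTiter-Glo viability, DMSO-only (no SAG) background subtracted, percent of SAG control. EC50 averaged from ≥2 independent days ±SEM.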

PDE4D3 = target: T1, PDE4D3 (Homo sapiens, UniProt Q08499); experiment: In vitro PDE assay; format: biochemical; conditions: for IC50: Table 9A; for Mode of inhibition (Lineweaver-Burk, Eadie Hofstee): purified PDE4D3
T1 construct: purchased BPS Biosciences (San Diego, Calif.); kinetic studies by Millipore (St. Louis, Mo.)
In short: (§1)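 Recombinant human PDE incubated 60 min at room temperature in duplicate with 100 nM FAM-cAMP in 10 mM Tris-HCl pH 7.4, 10 mM MgCl2, 0.05% Tween 20, 1% DMSO. FAM-AMP product captured by bead binding agent for 60 min, then fluorescence read at 485/528 nm.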

PDE4D2 = target: T2, PDE4D2 (Homo sapiens, UniProt Q08499); experiment: In vitro PDE assay; format: biochemical; conditions: for IC50: Table 9A
T2 construct: purchased BPS Biosciences (San Diego, Calif.)
In short: as §1

PC3 = experiment: Cell viability assay (CellTiter-Blue, 72 hr); format: cell-based; conditions: for EC50: PC-3, human cancer cells, read-out: CELL KILLING EC50 (μM) Prostate PCx3
Method: (§2) Cancer cell lines were seeded in 96 well tissue culture plate at a low density (10,000 cells per well) and treated with varying concentrations of Eggmanone. After 72 hr incubation, CellTiter-Blue Cell Viability Assay (Promega, Madison, Wis.) was then performed according to manufacturer's protocol. Absorbance was then measured in a Modulus Microplate reader (Promega, Madison, Wis.) at 590 nm and compared to cells treated with DMSO.

B16F11 = experiment: Cell viability assay (CellTiter-Blue, 72 hr); format: cell-based, Mouse
Method: as §2
as §2, with “density” for “density (10,000 cells per well)”, “compounds identified in Table 7.” for “Eggmanone.”

RWGT2 = experiment: Cell viability assay (CellTiter-Blue, 72 hr); format: cell-based, Human
Method: as §2
as §2, with “density” for “density (10,000 cells per well)”, “compounds identified in Table 7.” for “Eggmanone.”

HCT116 = experiment: Cell viability assay (CellTiter-Blue, 72 hr); format: cell-based, Human
Method: as §2
as §2, with “density” for “density (10,000 cells per well)”, “compounds identified in Table 7.” for “Eggmanone.”

DaoY = experiment: Cell viability assay (CellTiter-Blue, 72 hr); format: cell-based, Human
Method: as §2
as §2, with “density” for “density (10,000 cells per well)”, “compounds identified in Table 7.” for “Eggmanone.”

RKO = experiment: Cell viability assay (CellTiter-Blue, 72 hr); format: cell-based, Human; conditions: for EC50: RKO, human cancer cells, read-out: CELL KILLING EC50 (μM) Colon RKO
Method: as §2
as §2, with “density” for “density (10,000 cells per well)”, “compounds identified in Table 7.” for “Eggmanone.”

MDA-MB- 231 = experiment: Cell viability assay (CellTiter-Blue, 72 hr); format: cell-based, Human
Method: as §2
as §2, with “density” for “density (10,000 cells per well)”, “compounds identified in Table 7.” for “Eggmanone.”

[2] = 20 nM SAG, mean ± standard error of the mean, read-out: TM3-Gli-Luc EC50
[3] = TM3-Gli-Luc reporter line stimulated with 20 nM SAG, mean ± SEM, Table 14, read-out: TM3-Gli-Luc EC50
[4] = Table 9A, read-out: TM3 G8 Luciferase EC 50
[5] = Mus musculus, B16-F10, Table 10, read-out: CELL KILLING EC50 (μM) Melanoma B16F10
[6] = human cancer cells, read-out: CELL KILLING EC50 (μM) Lung Squam, NSCLC RWGT2
[7] = HCT-116, human cancer cells, read-out: CELL KILLING EC50 (μM) Colon HTC116
[8] = Daoy, human cancer cells, read-out: CELL KILLING EC50 (μM) Medulloblastoma DaoY
[9] = MDA-MB-231, human cancer cells, read-out: CELL KILLING EC50 (μM) Breast MDA-231

T1 sequence (Q08499 1-673 isoform Q08499-2): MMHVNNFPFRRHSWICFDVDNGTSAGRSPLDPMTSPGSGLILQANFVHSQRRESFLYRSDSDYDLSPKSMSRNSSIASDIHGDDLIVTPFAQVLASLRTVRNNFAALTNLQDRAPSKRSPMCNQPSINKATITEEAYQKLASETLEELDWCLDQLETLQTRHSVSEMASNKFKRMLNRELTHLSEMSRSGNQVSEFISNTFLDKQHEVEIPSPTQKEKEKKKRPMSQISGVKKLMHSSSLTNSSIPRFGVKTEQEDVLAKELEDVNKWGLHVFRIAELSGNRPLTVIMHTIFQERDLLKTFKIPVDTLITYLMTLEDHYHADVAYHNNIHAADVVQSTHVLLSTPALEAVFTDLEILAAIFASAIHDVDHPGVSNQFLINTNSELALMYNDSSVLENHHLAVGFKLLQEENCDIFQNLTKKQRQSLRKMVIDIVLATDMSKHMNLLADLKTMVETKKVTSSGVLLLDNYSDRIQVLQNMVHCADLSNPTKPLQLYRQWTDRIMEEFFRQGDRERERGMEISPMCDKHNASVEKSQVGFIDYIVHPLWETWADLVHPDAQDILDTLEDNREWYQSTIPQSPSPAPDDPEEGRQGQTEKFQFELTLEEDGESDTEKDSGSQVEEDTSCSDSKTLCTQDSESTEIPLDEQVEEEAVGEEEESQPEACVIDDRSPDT
T2 sequence (Q08499 303-809): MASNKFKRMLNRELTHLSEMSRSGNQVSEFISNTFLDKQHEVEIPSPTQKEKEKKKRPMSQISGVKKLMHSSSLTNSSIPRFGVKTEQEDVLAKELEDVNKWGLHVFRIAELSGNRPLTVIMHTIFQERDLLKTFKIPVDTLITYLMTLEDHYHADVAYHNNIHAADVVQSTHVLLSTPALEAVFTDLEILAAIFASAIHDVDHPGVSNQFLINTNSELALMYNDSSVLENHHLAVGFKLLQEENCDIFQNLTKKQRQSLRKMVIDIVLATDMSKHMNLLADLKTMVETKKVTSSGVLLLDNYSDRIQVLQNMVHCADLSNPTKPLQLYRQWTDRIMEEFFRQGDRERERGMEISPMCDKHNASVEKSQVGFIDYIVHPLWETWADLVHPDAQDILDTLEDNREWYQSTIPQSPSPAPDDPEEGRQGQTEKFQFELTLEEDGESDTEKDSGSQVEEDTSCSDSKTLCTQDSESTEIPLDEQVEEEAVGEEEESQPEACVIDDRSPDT

IC50 (PDE4D3)	EC50 [1, 4]	IC50 (PDE4D2)	Structure (SMILES)	EC50 (PC3)	EC50 (B16F11; [5])	EC50 (RWGT2; [6])	EC50 (HCT116; [7])	EC50 (DaoY; [8])	EC50 (RKO)	EC50 (MDA-MB- 231; [9])	other results
> 100 µM	0.476 µM		O=C(CSc1nc2sc3c(c2c(=O)n1C1CC1)CCCC3)c1cccs1 [JEH-3-039-2]								
15 µM	32.5 µM	6.4 µM	C=C(C)Cn1c(SCC(=O)c2nccs2)nc2sc3c(c2c1=O)CCCC3 [JEH-3-069-1]	69.7 µM	16.1 µM	27.6 µM	22.9 µM	26.9 µM	38.3 µM	14 µM	
24 µM	19 µM	16 µM	C=C(C)Cn1c(SCC(=O)c2ccncc2)nc2sc3c(c2c1=O)CCCC3 [JEH-3-048-1]	81.2 µM	14.2 µM	40.2 µM	87.9 µM	0.0574 µM	52.9 µM	6.82 µM	EC50 (DaoY; 72 h, read-out: EC50 (50% reduction of viable cell count at 72 hours), DaoY, Human Cerebellar Medulloblastoma): 0.057 µM

The remaining lines, values behind:

Structure (SMILES)	IC50 (PDE4D3)	EC50 [1, 4]	IC50 (PDE4D2)	EC50 (PC3)	EC50 (B16F11; [5])	EC50 (RWGT2; [6])	EC50 (HCT116; [7])	EC50 (DaoY; [8])	EC50 (RKO)	EC50 (MDA-MB- 231; [9])	other results
C=C(C)Cn1c(SCC(=O)c2ccccc2)nc2sc3c(c2c1=O)CCCC3 [Formula 9g]											Hh inhibitory activity / potency in words ([1]; 20 nM SAG): modest potency; EC50 [1, 2]: 5.7 ± 2.1 µM; EC50 [1, 3]: 5.7 ± 2.1 µM
C=C(C)Cn1c(SCC(=O)c2ccccc2)nc2sc3c(c2c1=O)CCCC3 [JEH-3-045-1]	18 µM	8.49 µM	14 µM								
C=C(C)Cn1c(SCC(=O)c2cccs2)nc2sc3c(c2c1=O)CCCC3 [Eggmanone, 3-(2-methylallyl)-2-((2-oxo-2-(thiophen-2-yl)ethyl)thio)-5,6,7,8-tetrahydrobenzo[4,5]thieno[2,3-d]pyrimidine-4(3H)-one]											Inhibition of super-short isoform PDE4D2 (PDE4D2): not inhibited; Potency against PDE4D3 versus any tested PDE not of the PDE4 family (PDE4D3): at least 60 fold; Mode of inhibition (Lineweaver-Burk, Eadie Hofstee) (PDE4D3): exhibited a competitive mode of inhibition; Effect on PC3 prostate cancer cell line (PC3): is affected; EC50 (B16F11; 72 h, read-out: EC50 (50% reduction of viable cell count at 72 hours), B16F11, Mouse Melanoma): 2.05 µM; EC50 (RWGT2; 72 h, read-out: EC50 (50% reduction of viable cell count at 72 hours), RWGT2, Human Lung Carcinoma): 6.87 µM; Effect on HCT116 colon cancer cell line (HCT116): significantly inhibited; Viability of Daoy medulloblastoma cells (DaoY): potently and preferentially reduced the viability; also recorded: significantly inhibited; Viability of Daoy medulloblastoma cells (DaoY; listed as eggmanone): potently and preferentially reduced the viability; Effect on RKO colon cancer cell line (RKO): significantly inhibited; EC50 (MDA-MB- 231; 72 h, read-out: EC50 (50% reduction of viable cell count at 72 hours), MDA-MB- 231, Human Breast Adenocarcinoma): 2.05 µM
C=C(C)Cn1c(SCC(=O)c2ccccn2)nc2sc3c(c2c1=O)CCCC3 [JEH-3-063]	23 µM	39.8 µM	4.9 µM	100 µM	2.29 µM	23.7 µM	3.82 µM	15.3 µM	7.18 µM	4.46 µM	EC50 (HCT116; HCT-116, 72 h, read-out: EC50 (50% reduction of viable cell count at 72 hours), HCT116, Human Colorectal Carcinoma): 3.82 µM
CCCn1c(SCC(=O)c2cccs2)nc2sc3c(c2c1=O)CCCC3 [Formula 9e]											EC50 [1, 2]: 1.3 ± 0.18 µM; EC50 [1, 3]: 1.3 ± 0.18 µM
C=C(C)Cn1c(SCC(=O)c2cccs2)nc2sc3c(c2c1=O)CCCC3 [EGM, Eggmanone]	1.1 µM	1.35 µM	1.3 µM	77.2 µM	2.22 µM	6.87 µM	11.4 µM	31.5 µM	54.3 µM	2.05 µM	Mode of inhibition (Lineweaver-Burk, Eadie Hofstee) (PDE4D3): competitive mode of inhibition; also recorded: acts in a competitive manner
C=CCn1c(SCC(=O)c2cccs2)nc2sc3c(c2c1=O)CCCC3 [JEH-3-039-3]	> 100 µM	3.02 µM	> 100 µM	50.1 µM	3.69 µM	5.07 µM	54.5 µM	34 µM	306 µM	1.74 µM	

From patent US10329304B2, “Compounds and methods for inhibition of hedgehog signaling and phosphodiesterase” (Vanderbilt University, priority 2014, dated 2019)
